From patent US8785460B2, “Tricyclic compounds and use thereof” (Takeda Pharmaceutical Company Limited, priority 2008, dated 2014)

How the values were obtained:
human CRF1 receptor = target: T1, human CRF1 receptor (Homo sapiens, UniProt P34998); assay: Measurement of CRF Binding Inhibitory Rate (receptor binding experiment with 125I-CRF); settings: human CRF1 receptor expressing CHO cellular membrane fraction, 50 pM 125I-CRF, room temperature 1.5 hr, 0.05 nM to 10 μM of compound; read-out: IC50 values (CRF binding inhibition)
T1 construct: expressed in transfected cells; host or cells: CHO cells (membrane fraction)
T1 sequence (P34998 24-415): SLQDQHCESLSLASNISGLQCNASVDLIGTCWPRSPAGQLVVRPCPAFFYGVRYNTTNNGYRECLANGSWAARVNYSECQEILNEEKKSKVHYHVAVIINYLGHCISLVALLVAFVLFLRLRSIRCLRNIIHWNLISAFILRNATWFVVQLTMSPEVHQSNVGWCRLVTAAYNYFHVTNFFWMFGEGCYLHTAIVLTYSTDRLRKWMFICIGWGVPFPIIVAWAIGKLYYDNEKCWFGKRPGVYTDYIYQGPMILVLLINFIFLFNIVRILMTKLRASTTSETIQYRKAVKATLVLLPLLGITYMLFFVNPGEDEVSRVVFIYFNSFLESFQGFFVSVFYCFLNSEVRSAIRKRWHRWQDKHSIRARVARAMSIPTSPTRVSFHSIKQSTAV

Question: With `CCO/N=C(/CC)c1ccc(Cl)c2nc3n(c12)CCCN3c1ccc(Cl)cc1Cl` [Example 124, (1Z)-1-[9-Chloro-1-(2,4-dichlorophenyl)-1,2,3,4-tetrahydropyrimido[1,2-a]benzimidazol-6-yl]propan-1-one O-ethyloxime] as the compound, how does the IC50 (human CRF1 receptor) read?
Answer: The IC50 was under 1 µM.

Question: And the melting point?
Answer: Its melting point is 140 to 141 °C.

Question: Which results are given for `CCC(O)(CC)c1ccc(Cl)c2nc3n(c12)CCCN3c1ccc(Cl)cc1C(F)(F)F` [Example 128, 3-{9-Chloro-1-[4-chloro-2-(trifluoromethyl)phenyl]-1,2,3,4-tetrahydropyrimido[1,2-a]benzimidazol-6-yl}pentan-3-ol]?
Answer: IC50 (human CRF1 receptor): < 1 µM; melting point: 178 to 180 °C

Question: With `CCN(CC)c1cc(F)cc2nc3n(c12)CCCN3c1ccc(Cl)cc1Cl` [Example 335, 1-(2,4-Dichlorophenyl)-N,N-diethyl-8-fluoro-1,2,3,4-tetrahydropyrimido[1,2-a]benzimidazol-6-amine] as the compound, how does the IC50 (human CRF1 receptor) read?
Answer: The IC50 was under 1 µM.

Question: And the melting point?
Answer: The melting point was 142 to 145 °C.

Question: With `CCC(OCC(F)F)c1ccc(Cl)c2nc3n(c12)CCCN3c1ccc(OC)nc1C` (centres unmarked) [Example 273, 9-Chloro-6-[1-(2,2-difluoroethoxy)propyl]-1-(6-methoxy-2-methylpyridin-3-yl)-1,2,3,4-tetrahydropyrimido[1,2-a]benzimidazole] as the compound, how does the IC50 (human CRF1 receptor) read?
Answer: Its IC50 is under 1 µM.

Question: And the melting point?
Answer: Its melting point is 130 to 132 °C.
